Tested on: murine skin inflammation; swelling caused by AA
Assay: arachidonic acid (AA), murine skin inflammation (ear) model, topical administration
Type: in vivo
Settings: for percent inhibition of swelling caused by AA alone: 10 uL of 100 mg/mL in CHCl3 (lithocholic acid in CHCl3:CH3OH 1:1) applied to the ear immediately after AA, 90 minutes; for % Inhibition of Swelling: topical, 1 mg applied to the ear immediately after arachidonic acid, 6 mm ear disk weighed at 90 minutes, average of two experiments (Table 1)
Method: Briefly, the compounds at an appropriate concentration are dissolved in a suitable solvent, and applied to a rodent ear immediately following application of arachidonic acid (AA). A control of AA alone is run. About 90 minutes later, a 6 mm disk of each ear is removed and weighed. The percent inhibition of swelling caused by AA alone is calculated for the steroidal C-glycoside derivatives of the invention and compared to other steroids.
Using the arachidonic acid (AA), murine skin inflammation model, described by Harris, R. R. et al. (Skin Pharmacol 1990; 3:29-40) the anti-inflammatory activity of (5) was tested. For comparison, Lithocholic acid and Methyl lithocholate, were also tested. Compounds were dissolved at 100 mg/mL in CHCl3, except for lithocholic acid which was dissolved in CHCl3 :CH3 OH (1:1); 10 uL of each compound was applied to the ear immediately following arachidonic acid (AA). AA was applied alone, or followed immediately with methyl lithocholate, ketone (12) alkene (11) or compound (5). 90 minutes later, a 6 mm disk of each ear was removed and weighed.

| SMILES | percent inhibition of swelling caused by AA alone | % Inhibition of Swelling [%] |
| --- | --- | --- |
| C[C@H](CCC(=O)O)[C@H]1CC[C@H]2[C@@H]3CC[C@@H]4C[C@H](O)CC[C@]4(C)[C@H]3CC[C@]12C [Lithocholic acid] | ~22.5% | 30.5 |
| COC(=O)CC[C@@H](C)[C@H]1CC[C@H]2[C@@H]3CC[C@@H]4C[C@H](OCC(O)(CO)C[C@@H]5O[C@@H](C)[C@@H](O)[C@@H](O)[C@@H]5O)CC[C@]4(C)[C@H]3CC[C@]12C (stereo partly drawn) [compound (5), 1-[3-O-(Lithocholic acid)]-2-(alpha-L-C-methylfucopyranose)-2',3'-propanediol methyl ester] | about 48.5% | 48.5 |
| COC(=O)CC[C@@H](C)[C@H]1CC[C@H]2[C@@H]3CC[C@@H]4C[C@H](O)CC[C@]4(C)[C@H]3CC[C@]12C [methyl lithocholate] | about 17.5% | 17.5 |
